Data: patent publication US20120071469A1 (priority 2009, published 2012)
Structures can show the parent of a compound that is named as a salt.

Target: α7-subtype of nicotinic receptors (Rattus norvegicus, UniProt Q05941)
Assay: biochemical
Type: binding

Sequence of α7-subtype of nicotinic receptors (Q05941 23-502): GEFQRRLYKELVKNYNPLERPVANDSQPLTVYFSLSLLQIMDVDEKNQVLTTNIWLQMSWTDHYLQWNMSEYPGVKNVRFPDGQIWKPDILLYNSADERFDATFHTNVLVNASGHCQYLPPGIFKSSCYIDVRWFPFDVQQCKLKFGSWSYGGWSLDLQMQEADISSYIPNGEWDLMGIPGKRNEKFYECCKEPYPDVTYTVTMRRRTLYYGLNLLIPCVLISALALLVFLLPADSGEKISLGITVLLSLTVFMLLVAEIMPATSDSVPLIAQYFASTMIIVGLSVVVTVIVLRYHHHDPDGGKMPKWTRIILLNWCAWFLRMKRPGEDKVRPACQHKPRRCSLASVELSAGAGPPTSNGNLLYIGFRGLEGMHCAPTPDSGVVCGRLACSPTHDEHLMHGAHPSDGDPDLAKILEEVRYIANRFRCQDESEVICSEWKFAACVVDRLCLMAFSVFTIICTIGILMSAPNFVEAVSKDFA

`c1cc2c(cc1-c1nnc(N3CCN4CCC3C4)o1)OCO2` (stereo not shown) [Compound I, 4-(5-Benzo[1,3]dioxol-5-yl-[1,3,4]oxadiazol-2-yl)-1,4-diaza-bicyclo[3.2.1]octane fumaric acid salt] was tested, and the IC50 was < 100 nM.
